Experiments:
Mus musculus [1] = assay: Biodistribution of [123I]- labeled compound in mice kidneys was determined after 10 min of administration; expressed in percent of injected dose per gram of organ; assay type: ADME, organism-based, Kidney; settings: in vivo
Mus musculus [2] = assay: Biodistribution of [123I]- labeled compound in mice brain was determined after 15 sec of administration; expressed in percent of injected dose per gram of organ; assay type: ADME, organism-based; settings: in vivo, 15 s
Mus musculus [3] = assay: Biodistribution of [123I]- labeled compound in mice heart was determined after 2 min of administration; expressed in percent of injected dose per gram of organ; assay type: ADME, organism-based; settings: in vivo
Mus musculus [4] = assay: Biodistribution of [123I]- labeled compound in mice heart was determined after 15 sec of administration; expressed in percent of injected dose per gram of organ; assay type: ADME, organism-based; settings: in vivo, 15 s
Mus musculus [5] = assay: Biodistribution of [123I]- labeled compound in mice heart was determined after 5 min of administration; expressed in percent of injected dose per gram of organ; assay type: ADME, organism-based; settings: in vivo
Mus musculus [6] = assay: Biodistribution of [123I]- labeled compound in mice heart was determined after 10 min of administration; expressed in percent of injected dose per gram of organ; assay type: ADME, organism-based; settings: in vivo
Mus musculus [7] = assay: Biodistribution of [123I]- labeled compound in mice lungs was determined after 15 sec of administration; expressed in percent of injected dose per gram of organ; assay type: ADME, organism-based, Lung; settings: in vivo, 15 s
Mus musculus [8] = assay: Biodistribution of [123I]- labeled compound in mice lungs was determined after 10 min of administration; expressed in percent of injected dose per gram of organ; assay type: ADME, organism-based, Lung; settings: in vivo
Mus musculus [9] = assay: Biodistribution of [123I]- labeled compound in mice lungs was determined after 1 min of administration; expressed in percent of injected dose per gram of organ; assay type: ADME, organism-based, Lung; settings: in vivo
Mus musculus [10] = assay: Biodistribution of [123I]- labeled compound in mice brain was determined after 1 min of administration; expressed in percent of injected dose per gram of organ; assay type: ADME, organism-based; settings: in vivo
Mus musculus [11] = assay: Biodistribution of [123I]- labeled compound in mice kidneys was determined after 15 sec of administration; expressed in percent of injected dose per gram of organ; assay type: ADME, organism-based, Kidney; settings: in vivo, 15 s
Mus musculus [12] = assay: Biodistribution of [123I]- labeled compound in mice kidneys was determined after 30 sec of administration; expressed in percent of injected dose per gram of organ; assay type: ADME, organism-based, Kidney; settings: in vivo, 0.5 min
Mus musculus [13] = assay: Biodistribution of [123I]- labeled compound in mice brain was determined after 2 min of administration; expressed in percent of injected dose per gram of organ; assay type: ADME, organism-based; settings: in vivo
Mus musculus [14] = assay: Biodistribution of [123I]- labeled compound in mice liver was determined after 30 sec of administration; expressed in percent of injected dose per gram of organ; assay type: ADME, organism-based; settings: in vivo, 0.5 min
Mus musculus [15] = assay: Biodistribution of [123I]- labeled compound in mice kidneys was determined after 1 min of administration; expressed in percent of injected dose per gram of organ; assay type: ADME, organism-based, Kidney; settings: in vivo
Mus musculus [16] = assay: Biodistribution of [123I]- labeled compound in mice brain was determined after 30 sec of administration; expressed in percent of injected dose per gram of organ; assay type: ADME, organism-based; settings: in vivo, 0.5 min
Mus musculus [17] = assay: Biodistribution of [123I]- labeled compound in mice kidneys was determined after 5 min of administration; expressed in percent of injected dose per gram of organ; assay type: ADME, organism-based, Kidney; settings: in vivo
Mus musculus [18] = assay: Biodistribution of [123I]- labeled compound in mice liver was determined after 15 sec of administration; expressed in percent of injected dose per gram of organ; assay type: ADME, organism-based; settings: in vivo, 15 s
Mus musculus [19] = assay: Biodistribution of [123I]- labeled compound in mice liver was determined after 1 min of administration; expressed in percent of injected dose per gram of organ; assay type: ADME, organism-based; settings: in vivo
Mus musculus [20] = assay: Biodistribution of [123I]- labeled compound in mice lungs was determined after 2 min of administration; expressed in percent of injected dose per gram of organ; assay type: ADME, organism-based, Lung; settings: in vivo
Mus musculus [21] = assay: Biodistribution of [123I]- labeled compound in mice liver was determined after 2 min of administration; expressed in percent of injected dose per gram of organ; assay type: ADME, organism-based; settings: in vivo
Mus musculus [22] = assay: Biodistribution of [123I]- labeled compound in mice brain was determined after 10 min of administration; expressed in percent of injected dose per gram of organ; assay type: ADME, organism-based; settings: in vivo
Mus musculus [23] = assay: Biodistribution of [123I]- labeled compound in mice lungs was determined after 30 sec of administration; expressed in percent of injected dose per gram of organ; assay type: ADME, organism-based, Lung; settings: in vivo, 0.5 min
Mus musculus [24] = assay: Biodistribution of [123I]- labeled compound in mice brain was determined after 5 min of administration; expressed in percent of injected dose per gram of organ; assay type: ADME, organism-based; settings: in vivo
Mus musculus [25] = assay: Biodistribution of [123I]- labeled compound in mice lungs was determined after 5 min of administration; expressed in percent of injected dose per gram of organ; assay type: ADME, organism-based, Lung; settings: in vivo
Mus musculus [26] = assay: Biodistribution of [123I]- labeled compound in mice liver was determined after 10 min of administration; expressed in percent of injected dose per gram of organ; assay type: ADME, organism-based; settings: in vivo
Mus musculus [27] = assay: Biodistribution of [123I]- labeled compound in mice heart was determined after 1 min of administration; expressed in percent of injected dose per gram of organ; assay type: ADME, organism-based; settings: in vivo
Mus musculus [28] = assay: Biodistribution of [123I]- labeled compound in mice liver was determined after 5 min of administration; expressed in percent of injected dose per gram of organ; assay type: ADME, organism-based; settings: in vivo
Mus musculus [29] = assay: Biodistribution of [123I]- labeled compound in mice heart was determined after 30 sec of administration; expressed in percent of injected dose per gram of organ; assay type: ADME, organism-based; settings: in vivo, 0.5 min
Mus musculus [30] = assay: Biodistribution of [123I]- labeled compound in mice kidneys was determined after 2 min of administration; expressed in percent of injected dose per gram of organ; assay type: ADME, organism-based, Kidney; settings: in vivo

O=C(O)CCOCCI
Biodistribution (Mus musculus [1]): 12.7% | Biodistribution (Mus musculus [2]): 5.5% | Biodistribution (Mus musculus [3]): 5.3% | Biodistribution (Mus musculus [4]): 17.8% | Biodistribution (Mus musculus [5]): 4.2% | Biodistribution (Mus musculus [6]): 3.2% | Biodistribution (Mus musculus [7]): 18.4% | Biodistribution (Mus musculus [8]): 6.5% | Biodistribution (Mus musculus [9]): 12% | Biodistribution (Mus musculus [10]): 4.7% | Biodistribution (Mus musculus [11]): 8.6% | Biodistribution (Mus musculus [12]): 8.8% | Biodistribution (Mus musculus [13]): 4.1% | Biodistribution (Mus musculus [14]): 5.5% | Biodistribution (Mus musculus [15]): 9% | Biodistribution (Mus musculus [16]): 5.1% | Biodistribution (Mus musculus [17]): 13.2% | Biodistribution (Mus musculus [18]): 2.3% | Biodistribution (Mus musculus [19]): 7.8% | Biodistribution (Mus musculus [20]): 10.9% | Biodistribution (Mus musculus [21]): 8.5% | Biodistribution (Mus musculus [22]): 1.6% | Biodistribution (Mus musculus [23]): 12.6% | Biodistribution (Mus musculus [24]): 2.4% | Biodistribution (Mus musculus [25]): 8.8% | Biodistribution (Mus musculus [26]): 7.1% | Biodistribution (Mus musculus [27]): 6.2% | Biodistribution (Mus musculus [28]): 9.9% | Biodistribution (Mus musculus [29]): 7.9% | Biodistribution (Mus musculus [30]): 11.3%

From ChEMBL document CHEMBL1150459, “The -iodoethoxyl group: a stable unit for radioiodination” (Bioorg Med Chem Lett, 1994)
